We go through 5 molecules from US20250332290A1, “PSMA-TARGETING LIGANDS FOR MULTIMODAL APPLICATIONS” (STICHTING RADBOUD UNIVERSITAIR MEDISCH CENTRUM, priority 2021, published 2025).

Data set [1] addresses T1, PSMA (LS174T-PSMA cells) (Homo sapiens, UniProt Q04609).
T1 construct: expressed in transfected cells
Briefly: Binding and internalization assay with 111In-labelled ligands on PSMA-expressing LS174T-PSMA cells. Conditions: for Average binding %, Internalized / Average binding %, Membrane bound / Average binding %, Total: 111In-labelled, 50,000 cpm, 2 h at 37° C., LS174T-PSMA cells. It is filed as cell-based. The method, then:
Each labelled ligand (0.01 mL) was dissolved in PBS (0.5 mL) and diluted 1:10:100 in three tubes, resulting in tube 1 1×, tube 2 10× and tube 3 100× dilution. The tubes were measured by a gamma-counter to determine the counts per minute of known ligand concentrations. The calculated amounts of ligand were transferred from tubes 2 into new tubes and filled with binding buffer to total volume 0.5 mL. These solutions are needed for the binding and internalization assay.
Two days before the assay, four six-well plates were plated with 0.3-1.0 million PSMA-expressing LS174T-PSMA cells per well in culture medium (2 mL). On the day of the assay, the cells were washed with PBS. Binding buffer (0.5% BSA in RMPI 1640, 2 mL) and 50,000 counts per minute of radiolabelled PSMA-ligand (0.005 mL) were added from tubes prepared according to calculation with standards. Each ligand was examined in triplicate. The cells were incubated at 37° C. for 2 hours and after this the medium was removed. The cells were washed with ice-cold PBS and cooled to 0° C. After incubating the cells with acid buffer pH 2.6 (0.1M acetic acid, 0.15 M NaCl, 2 mL) for 10 minutes, the membrane-bound ligands were collected in tubes. The cells were washed with ice-cold PBS again and these fractions were collected as control. NaOH was added to the cells (0.1 M, 2 mL) for 10 minutes to lyse the cells and free the internalized ligands. The ^111In-radiocounts per minute of all fractions and standards were measured by a gamma-counter. From this, the ligand-PSMA binding percentages and internalization fraction were quantified.

For data set [2], the target named is T1, PSMA (LS174T-PSMA cells). Briefly: Competitive binding assay against 111In-labeled PSMA-617 using LS174T-PSMA cells. Conditions: on ice 2 h, 111In-labeled PSMA-617 as competitor, unlabeled ligand 0.01-300 nM. The method, then:
(§1) IC50: The 50% inhibitory concentration (IC50) of the ligands was determined using LS174T-PSMA cells in a competitive binding assay. The LS174T-PSMA cells were cultured to confluency in 6-wells plates, followed by incubation on ice for 2 h in 1 mL of binding buffer (RPMI/0.5% BSA) with 50,000 cpm of ^111In-labeled PSMA-617 and a series of increasing concentrations (0.01-300 nM) of unlabeled PSMA ligands. After incubation, cells were washed with 2 ml PBS and lysed with 1.5 ml 0.1 M NaOH. Cell lysis was collected from the plate and the cell-associated activity was measured in a gamma-counter and IC50 values were calculated using GraphPad Prism software version 5.03. Lipophilicity: LogD values of all radiolabeled ligands were determined by adding 300,000 cpm (0.6-1.5 pmol) to a mixture of 3 ml PBS (pH 7.4) and 3 ml n-octanol. Tubes were vortexed vigorously for 1 min and centrifuged for 5 min at 201×g. The concentration of radioactivity in a defined volume of each layer was measured in a well-type gamma-counter.

The nature of data set [3]: Lipophilicity, LogD of radiolabeled ligands in PBS (pH 7.4) / n-octanol. In kind it is physicochemical. Conditions: radiolabeled ligand. The method, then:
as §1

Data set [4] addresses T1, PSMA (LS174T-PSMA cells). Briefly: Alternative internalization assay in LS174T-PSMA cells. To be noted: 2 h at 37° C. In kind it is cell-based. Here is the method: Alternative internalization assay: binding and internalization characteristics of all ligands were compared using LS174T-PSMA and wildtype LS174T cells, cultured to confluency in 6-wells plates. Cells were incubated with 50,000 counts per minute (cpm) ^111In- or ^99mTc-labeled PSMA ligand (0.1-0.25 pmol/well) in 1 ml binding buffer (RPMI/0.5% BSA) for 2 h at 37° C. Nonspecific binding was determined by co-incubation with 2-(phosphonomethyl) pentane-1,5-dioic acid (2-PMPA, 21.57 µM). Cells were washed with PBS and incubated with acid buffer (0.1 M acetic acid, 154 mM NaCl, pH 2.6) for 10 minutes at 0° C. to retrieve the membrane-bound fraction. After this, the membrane-bound fraction was collected, cells were washed, lysed with 1.5 ml 0.1 M NaOH and cell lysis (intracellular activity) was collected. Membrane-bound activity and intracellular activity fractions were measured in a gamma-counter (2480 WIZARD^2 Automatic Gamma Counter, PerkinElmer) (6,42).

Structures are written as SMILES. Values joined by “and” are separate entries in the source; they are usually repeats but may differ in a detail not shown here. Equal values may be shown once.

T1 sequence (Q04609 whole entry): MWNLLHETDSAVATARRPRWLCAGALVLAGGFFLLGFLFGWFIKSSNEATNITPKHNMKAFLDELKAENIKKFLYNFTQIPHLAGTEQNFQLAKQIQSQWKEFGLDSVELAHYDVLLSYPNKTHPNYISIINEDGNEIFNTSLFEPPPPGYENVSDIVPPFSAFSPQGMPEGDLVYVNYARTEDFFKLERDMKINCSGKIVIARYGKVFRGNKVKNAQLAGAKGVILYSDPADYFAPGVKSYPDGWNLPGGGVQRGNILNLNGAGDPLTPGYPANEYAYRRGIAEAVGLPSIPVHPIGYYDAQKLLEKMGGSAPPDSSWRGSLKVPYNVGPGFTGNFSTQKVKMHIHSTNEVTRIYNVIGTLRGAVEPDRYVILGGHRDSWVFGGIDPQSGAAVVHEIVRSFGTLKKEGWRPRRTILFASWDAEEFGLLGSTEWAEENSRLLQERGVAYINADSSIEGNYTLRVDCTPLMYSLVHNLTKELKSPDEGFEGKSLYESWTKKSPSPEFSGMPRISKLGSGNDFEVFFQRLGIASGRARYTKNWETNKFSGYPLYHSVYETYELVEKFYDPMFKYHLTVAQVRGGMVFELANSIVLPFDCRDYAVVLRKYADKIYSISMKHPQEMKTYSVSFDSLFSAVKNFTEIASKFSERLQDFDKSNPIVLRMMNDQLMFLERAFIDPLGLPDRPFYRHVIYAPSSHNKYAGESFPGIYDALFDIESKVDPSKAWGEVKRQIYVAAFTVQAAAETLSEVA

Regarding `O=C(O)CC[C@H](NC(=O)N[C@@H](CCCCNC(=O)[C@H](Cc1ccc2ccccc2c1)NC(=O)c1ccc(CNC(=O)[C@H](CCCCNC(=O)CN2CCN(CC(=O)O)CCN(CC(=O)O)CCN(CC(=O)O)CC2)NC(=O)[C@H](CCC(=O)O)NC(=O)c2ccccc2)cc1)C(=O)O)C(=O)O` [Compound K9], on PSMA (LS174T-PSMA cells) [1], the “Average binding %, Internalized” value amounted to 9.06%; the “Average binding %, Membrane bound” value came to 9.87%; the “Average binding %, Total” value is 18.9% and 18.93%. Also, the “total binding to PSMA expressing cells relative to PSMA-617” value at PSMA (LS174T-PSMA cells) [1] (ratio of total binding percentages) is 2.6 times.

The IC50 is the point on the concentration scale where inhibition reaches its midpoint. `CC1(C)C(=CC=C2CCCC(C=CC3=[N+](CCCCCC(=O)NCCCCC(NC(=O)CN4CCN(CC(=O)O)CCN(CC(=O)O)CCN(CC(=O)O)CC4)C(=O)NCCCCC(NC(=O)C(CCC(=O)O)NC(=O)c4cccnc4)C(=O)NCc4ccc(C(=O)NC(Cc5ccc6ccccc6c5)C(=O)NCCCCC(NC(=O)NC(CCC(=O)O)C(=O)O)C(=O)O)cc4)c4ccc(S(=O)(=O)O)cc4C3(C)C)=C2Oc2ccc(S(=O)(=O)O)cc2)N(CCCCS(=O)(=O)O)c2ccc(S(=O)(=O)O)cc21` (stereo not shown) [Compound K11] returned an IC50 at PSMA (LS174T-PSMA cells) [2] of 0.312 µM. Besides, in data set [3], the LogD was −4.4 +/− 0.01. For the same molecule, on PSMA (LS174T-PSMA cells) [4], the “Internalization Ratio (%)” value is 74.1 +/− 20.3%.

`CC(=O)SCC(=O)NCC(=O)NCC(=O)NCC(=O)NC(CCCCNC(=O)CCCCC[N+]1=C(C=CC2=C(Oc3ccc(S(=O)(=O)O)cc3)C(=CC=C3N(CCCCS(=O)(=O)O)c4ccc(S(=O)(=O)O)cc4C3(C)C)CCC2)C(C)(C)c2cc(S(=O)(=O)O)ccc21)C(=O)NCCCCC(NC(=O)C(CCC(=O)O)NC(=O)c1cccnc1)C(=O)NCc1ccc(C(=O)NC(Cc2ccc3ccccc3c2)C(=O)NCCCCC(NC(=O)NC(CCC(=O)O)C(=O)O)C(=O)O)cc1` (stereo not shown) [Compound K12] yielded an IC50 at PSMA (LS174T-PSMA cells) [2] of 0.475 µM. Besides, in data set [3], the LogD is −3.5 +/− 0.01. Further, at PSMA (LS174T-PSMA cells) [4], the “Internalization Ratio (%)” value was 61.0 +/− 12.8%.

In the case of `CC1(C)C(/C=C/C2=C(Oc3ccc(S(=O)(=O)O)cc3)C(=C/C=C3/N(CCCCS(=O)(=O)O)c4ccc(S(=O)(=O)O)cc4C3(C)C)/CCC2)=[N+](CCCCCC(=O)NCCC(=O)N2Cc3ccccc3-c3c(cnn3CCCCC(NC(=O)CN3CCN(CC(=O)O)CCN(CC(=O)O)CCN(CC(=O)O)CC3)C(=O)NCCCC[C@H](NC(=O)[C@H](CCC(=O)O)NC(=O)c3cccnc3)C(=O)NCc3ccc(C(=O)N[C@@H](Cc4ccc5ccccc5c4)C(=O)NCCCC[C@H](NC(=O)N[C@@H](CCC(=O)O)C(=O)O)C(=O)O)cc3)-c3ccccc32)c2ccc(S(=O)(=O)O)cc21` (stereo partly shown) [Compound K13], the IC50 on PSMA (LS174T-PSMA cells) [2] was determined as 0.184 µM. Also, in data set [3], the LogD is reported as −3.2 +/− 0.16. Moreover, at PSMA (LS174T-PSMA cells) [4], the “Internalization Ratio (%)” value is listed as 80.6 +/− 11.6%.

Regarding `O=C(O)CC[C@H](NC(=O)N[C@@H](CCCCNC(=O)[C@H](Cc1ccc2ccccc2c1)NC(=O)[C@H]1CC[C@H](CNC(=O)CN2CCN(CC(=O)O)CCN(CC(=O)O)CCN(CC(=O)O)CC2)CC1)C(=O)O)C(=O)O` [PSMA-617, reference compound], on PSMA (LS174T-PSMA cells) [1], the “Average binding %, Internalized” value is listed as 3.39%; the “Average binding %, Membrane bound” value came out at 3.80%; the “Average binding %, Total” value came out at 7.19%. This molecule yielded an IC50 on PSMA (LS174T-PSMA cells) [2] of 0.0085 µM. Also, the LogD in data set [3] is −4.1 +/− 0.01. In addition, the “Internalization Ratio (%)” value on PSMA (LS174T-PSMA cells) [4] is listed as 48.4 +/− 12.4%.
